Reference: patent publication US9566277B2, “Methods of using phthalazinone ketone derivatives” (Jiangsu Hansoh Pharmaceutical Co., Ltd., priority 2010, dated 2017)

Assay: Pharmacokinetics assay in SD rats (LC/MS/MS plasma concentration)
Type: in vivo
Details: 15 mg/kg; for Vd/F / CL/F: both sexes, rat, plasma, oral gavage; for Vd/F: read-out: Apparent Distribution Volume Vz/F; for CL/F: read-out: Clearance CL/F (converted); for Apparent Distribution Volume Vz/F / Clearance CL/F: intravenous injection
Experimental: 24 Healthy adult SD rats, male and female in half, were purchased from SINO-BRITSH SIPPR/BK LAB. ANIMAL LTD., CO, Certificate No.: SCXK (Shanghai) 2003-0002.
The intragastrical administration group: the right amount of tested compounds were weighed and dissolved in 0.5 mL of DMSO, diluted with physiological saline to 10 mL and prepared to 1.5 mg/mL.
The intravenous injection administration group: the right amount of tested compounds were weighed and added into […].
After an overnight fast, 24 healthy adult SD rats, male and female in half, were administered intragastrically at a dose of 15.0 mg/kg and an administration volume of 10 mL/kg.
(§1) The intragastrical administration group: blood samples (0.2 mL) were taken from orbital sinus at pre administration and at 0.25 hour, 0.5 hour, 1.0 hour, 1.5 hours, 2.0 hours, 3.0 hours, 4.0 hours, 6.0 hours, 7.0 hours, 9.0 hours, 12.0 hours and 24.0 hours post administration, stored in heparinized tubes and centrifuged for 20 minutes at 3,500 rpm to separate plasma. The plasma samples were stored at −20° C. The rats were fed at 2 hours after administration.
as §1, with “intravenous injection” for “intragastrical”, “2 minutes, 15 minutes,” for “0.25 hour,”, “hour,” for “hour, 1.5 hours,”, “8.0” for “7.0 hours, 9.0”, “C.” for “C. The rats were fed at 2 hours after administration.”
20 μL of rat blank plasmas taken at various time points after administration were added with 50 μL of internal standard solution and […] of methanol and mixed for 3 minutes by a vortexer. The mixture was centrifuged for 10 minutes at 13,500 rpm. 20 μL of the supernatant was analyzed by LC-MS/MS. The main pharmacokinetic parameters were calculated by software DAS 2.0.

| Vd/F | CL/F | Apparent Distribution Volume Vz/F | Clearance CL/F | SMILES |
| --- | --- | --- | --- | --- |
| 7.97 ± 5.38 L/kg | 57.5 mL/min/kg |  |  | O=C(c1cc(Cc2n[nH]c(=O)c3ccccc23)ccc1F)N1CCn2nc(C(F)(F)F)nc2C1 [Example 19, 4-[[4-fluoro-3-[2-(trifluoromethyl)-6,8-dihydro-5H-[1,2,4]triazolo[1,5-a]pyrazine-7-carbonyl]phenyl]methyl]-2H-phthalazin-1-one] |
| 49.9 ± 52.9 L/kg | 74.5 mL/min/kg | 4.70 ± 2.17 L/kg | 12 ± 7.5 mL/min/kg | CNC(=O)c1nc(C(F)(F)F)n2c1CN(C(=O)c1cc(Cc3n[nH]c(=O)c4ccccc34)ccc1F)CC2 [Example 13, 7-[2-fluoro-5-[(4-oxo-3H-phthalazin-1-yl)methyl]benzoyl]-N-methyl-3-(trifluoromethyl)-6,8-dihydro-5H-imidazo[1,5-a]pyrazine-1-carboxamide] |
| 103 ± 134 L/kg | 257 mL/min/kg | 0.64 ± 0.19 L/kg | 8.67 ± 4.83 mL/min/kg | CCNC(=O)c1nc(C(F)(F)F)n2c1CN(C(=O)c1cc(Cc3n[nH]c(=O)c4ccccc34)ccc1F)CC2 [Example 7, N-ethyl-7-[2-fluoro-5-[(4-oxo-3H-phthalazin-1-yl)methyl]benzoyl]-3-(trifluoromethyl)-6,8-dihydro-5H-imidazo[1,5-a]pyrazine-1-carboxamide] |
